{"source": "patent US20090074757A1", "about": "“Antitumor Combination Comprising Substituted Acryloyl Distamycin Derivatives and Antibodies Inhibiting Growth Factors or Their Receptors” (priority 2005, published 2009)", "tested_on": "DU145 human prostate carcinoma cells", "assay": "In vivo antitumor efficacy, DU145 human prostate carcinoma xenograft in athymic mice", "design": "species or system Balb Nu/Nu athymic mice", "conditions": "for Toxicity: evaluated on the basis of body weight reduction, animals per group of 8, bevacizumab 20 mg/kg i.p., brostallicin 0.2 mg/kg i.v.; for Time to reach 1 g / T-C (days), delay for treated vs control tumors to reach 1 g: s.c. DU145 tumors in athymic mice, bevacizumab 20 mg/kg i.p. days 6,10,13,17,20,24; for Time to reach 1 g: treatment from day 6, brostallicin 0.2 mg/kg i.v. days 6,13,20 (q7d x 3); for T-C (days), delay for treated vs control tumors to reach 1 g: brostallicin 0.2 mg/kg i.v. days 6,13,20", "method": "Balb Nu/Nu, male mice, (athymic mice) from Harlan, Italy, were maintained in cages with paper filter covers, food and bedding sterilized and water acidified. 2.5×10^6 DU145 human prostate carcinoma cells (from American Type Culture Collection) were injected subcutaneously in athymic mice. […] The treatments started 6 days later when the tumors were palpable. All drugs were prepared immediately before use. Brostallicin treatments were administered intravenously in a volume of 10 ml/kg at a dose of 0.2 mg/kg and treatments were repeated weekly for 3 weeks. Bevacizumab was administered intraperitoneally in a volume of 10 ml/kg at a dose of 20 mg/kg on the days 6, 10, 13, 17, 20 and 24 from the day of cell injection. When both compounds were administered on the same day, bevacizumab was administered intraperitoneally immediately before brostallicin intravenous injection. Every 3 days the tumor growth and the net body weight were evaluated. Tumor growth was assessed by caliper. The two diameters were recorded, and the tumor weight was calculated according to the following formula: length (mm)×width^2 (mm)/2. The effect of the antitumor treatment was determined as the delay in the onset of an exponential growth of tumors [see for reference, Anti Cancer Drugs 7: 437-60, 1996]. This delay (T-C value) was defined as the difference of the time (in days) required for the treatment group (T) and the control group (C) tumors to reach a predetermined size (e.g. 1 g). Toxicity was evaluated on the basis of the body weight reduction."}
{"molecule": "C=C(Br)C(=O)Nc1cc(C(=O)Nc2cc(C(=O)Nc3cc(C(=O)Nc4cc(C(=O)NCCNC(=N)N)n(C)c4)n(C)c3)n(C)c2)n(C)c1.Cl", "note": "[Brostallicin, N-(5-{[(5-{[(5-{[(2-{[amino(imino)methyl]amino}ethyl)amino]carbonyl}-1-methyl-1H-pyrrol-3-yl)amino]carbonyl}-1-methyl-1H-pyrrol-3-yl)amino]carbonyl}-1-methyl-1H-pyrrol-3-yl)-4-[(2-bromoacryloyl)amino]-1-methyl-1H-pyrrole-2-carboxamide hydrochloride]", "values": [{"measurement": "Toxicity", "result": "0/8"}, {"measurement": "Time to reach 1 g", "result": "18.4 ± 5.6", "unit": "days"}, {"measurement": "T-C (days), delay for treated vs control tumors to reach 1 g", "result": 4.6, "unit": "days"}]}
{"molecule": "Bevacizumab: monoclonal antibody directed against the vascular endothelial growth factor (VEGF), a potent neo-vascularisation inhibitor", "values": [{"measurement": "Toxicity", "result": "0/8"}, {"measurement": "Time to reach 1 g", "result": "23.4 ± 4.6", "unit": "days"}, {"measurement": "T-C (days), delay for treated vs control tumors to reach 1 g", "result": 9.6, "unit": "days"}]}
